Experiment: RP, Waters XBridge C18, 50 × 2.1 mm, 3.5 µm, 30 °C, 0.2 mL/min, estimated dead time 0.55 min; A: water + 0.1% formic acid, pH 3; B: methanol + 0.1% formic acid, pH 3; gradient (min/%B) 0/10 4/50 17/95 25/95 25.1/10 30/10
Conditions: stereoisomer not certain

LC retention time	Compound
12.1 min	COc1ccc(C(=O)c2ccccc2)c(O)c1 [Benzophenone-3]
6.6 min	c1ccc2scnc2c1 [Benzothiazole]
10.6 min	CC(C)(Oc1ccc(CCNC(=O)c2ccc(Cl)cc2)cc1)C(=O)O [Bezafibrate]
20.4 min	O=P(O)(OCCC(F)(F)C(F)(F)C(F)(F)C(F)(F)C(F)(F)C(F)(F)C(F)(F)C(F)(F)F)OCCC(F)(F)C(F)(F)C(F)(F)C(F)(F)C(F)(F)C(F)(F)C(F)(F)C(F)(F)F [Bisperfluorodecyl phosphate]
18.1 min	O=P(O)(OCCC(F)(F)C(F)(F)C(F)(F)C(F)(F)C(F)(F)C(F)(F)F)OCCC(F)(F)C(F)(F)C(F)(F)C(F)(F)C(F)(F)C(F)(F)F [Bisperfluorooctyl phosphate]
4 min	Cn1c(=O)c2c(ncn2C)n(C)c1=O [Caffeine]
6.3 min	NC(=O)N1c2ccccc2C2OC2c2ccccc21 (stereo not drawn) [Carbamazepine-10,11-epoxide]
7.8 min	NC(=O)N1c2ccccc2C=Cc2ccccc21 [Carbamazepine]
6.6 min	CCNC(=O)C(C)OC(=O)Nc1ccccc1 (stereo not drawn) [Carbetamide]
2.2 min	Cn1ncc(N)c(Cl)c1=O [Chloridazone-methyl-desphenyl]
5.2 min	CC1(C)CC1C(=O)NC(=CCCCCSCC(N)C(=O)O)C(=O)O (stereo not drawn) [Cilastatin]
4.5 min	O=C(O)c1cn(C2CC2)c2cc(N3CCNCC3)c(F)cc2c1=O [Ciprofloxacin]
6.6 min	CN(C)CCCC1(c2ccc(F)cc2)OCc2cc(C#N)ccc21 (stereo not drawn) [Citalopram]
9.7 min	CCC1OC(=O)C(C)C(OC2CC(C)(OC)C(O)C(C)O2)C(C)C(OC2OC(C)CC(N(C)C)C2O)C(C)(OC)CC(C)C(=O)C(C)C(O)C1(C)O (stereo not drawn) [Clarithromycin]
8.1 min	CC(C)(C)C(=O)C(Oc1ccc(Cl)cc1)n1ccnc1 (stereo not drawn) [Climbazol]
6.7 min	CCCC1CC(C(=O)NC(C(C)Cl)C2OC(SC)C(O)C(O)C2O)N(C)C1 (stereo not drawn) [Clindamycin]
5.7 min	O=C(O)C(c1ccccc1Cl)N1CCc2sccc2C1 (stereo not drawn) [Clopidogrel carboxylic acid]

Further lines, the molecule ahead of its results:

Compound	LC retention time
CN1C2CCC1C(C(=O)O)C(OC(=O)c1ccccc1)C2 (stereo not drawn) [Benzoylecgonine]	4.6 min
CC(O)(CS(=O)(=O)c1ccc(F)cc1)C(=O)Nc1ccc(C#N)c(C(F)(F)F)c1 (stereo not drawn) [Bicalutamide]	9.9 min
CC(C)(c1ccc(O)cc1)c1ccc(O)cc1 [Bisphenol A]	14 min
O=C(Nc1ccccc1-c1ccc(Cl)cc1)c1cccnc1Cl [Boscalid]	10.5 min
CCC(C)n1c(=O)[nH]c(C)c(Br)c1=O (stereo not drawn) [Bromacil]	7 min
N#Cc1cc(Br)c(O)c(Br)c1 [Bromoxynil]	8.3 min
CC(NC(C)(C)C)C(=O)c1cccc(Cl)c1 (stereo not drawn) [Bupropion]	5.8 min
CCOc1nc2cccc(C(=O)O)c2n1Cc1ccc(-c2ccccc2-c2nn[nH]n2)cc1 [Candesartan]	9.3 min
O=C(O)COCCN1CCN(C(c2ccccc2)c2ccc(Cl)cc2)CC1 (stereo not drawn) [Cetirizine]	9.3 min
Nc1cnn(-c2ccccc2)c(=O)c1Cl [Chloridazon]	5.2 min
Nc1cn[nH]c(=O)c1Cl [Chloridazone-desphenyl]	1.3 min
COP(=S)(OC)Oc1nc(Cl)c(Cl)cc1Cl [Chlorpyrifos-methyl]	14 min
CCOP(=S)(OCC)Oc1nc(Cl)c(Cl)cc1Cl [Chlorpyrifos]	16 min
Cc1ccc(NC(=O)N(C)C)cc1Cl [Chlortoluron]	8.2 min
CC(C)(Oc1ccc(Cl)cc1)C(=O)O [Clofibric acid]	10 min
CC1(C)CON(Cc2ccccc2Cl)C1=O [Clomazone]	9.4 min

Source: the RepoRT retention time repository (doi:10.1021/es4044374)
